PubChem BioAssay AID2060907 (Molecular Pharmacology Branch, DTP, NCI, 2025)
One block for each molecule: values may come before it.

Tested on: 388556-164-R-J1-PDC complex spheroid viability
Experiment: Anticancer human tumor 388556-164-R-J1-PDC patient-derived colon adenocarcinoma cell line growth inhibition [RAS]
Settings: for IC50: curve of first compound; for viability, T/C: stronger effect = lower value
In short: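 Tumour cells grown as complex spheroids with HUVEC endothelial cells and mesenchymal stem cells, treated with RAS pathway inhibitor combinations. Each agent spans half-log steps from near clinical Cmax, or 10 microM where Cmax is unknown.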

[1] = second compound 0.0316 µM, first compound 0.0316 µM
[2] = second compound 0.0316 µM, first compound 0.1 µM
[3] = second compound 0.0316 µM, first compound 0.316 µM
[4] = second compound 0.0316 µM, first compound 1 µM
[5] = second compound 0.1 µM, first compound 0.0316 µM
[6] = second compound 0.1 µM, first compound 0.1 µM
[7] = second compound 0.1 µM, first compound 0.316 µM
[8] = second compound 0.1 µM, first compound 1 µM
[9] = second compound 0.316 µM, first compound 0.0316 µM
[10] = second compound 0.316 µM, first compound 0.1 µM
[11] = second compound 0.316 µM, first compound 0.316 µM
[12] = second compound 0.316 µM, first compound 1 µM
[13] = second compound 1 µM, first compound 0.0316 µM
[14] = second compound 1 µM, first compound 0.1 µM
[15] = second compound 1 µM, first compound 0.316 µM
[16] = second compound 1 µM, first compound 1 µM
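Also: spheroids exposed to compound for 7 days before readout.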
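For viability, T/C in this document: 100% = DMSO vehicle control luminescence.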

IC50 (second compound 0.0316 µM): 363 nM
IC50 (second compound 0.1 µM): 149 nM
IC50 (second compound 0.316 µM): 157 nM
IC50 (second compound 1 µM): 84.6 nM
IC50 (second compound 3.16 µM): < 31.6 nM
IC50 (second compound 10 µM): < 31.6 nM
Compound: NC1c2ccccc2OC12CCN(c1cnc3c(N4CCCc5ncccc54)n[nH]c3n1)CC2 (stereo unspecified) + C#Cc1c(F)ccc2cc(O)cc(-c3ncc4c(N5CC6CCC(C5)N6)nc(OCC56CCCN5CC(F)C6)nc4c3F)c12
viability, T/C [1]: 58.8%
viability, T/C [2]: 59.1%
viability, T/C [3]: 50.1%
viability, T/C [4]: 41.8%
viability, T/C (second compound 0.0316 µM, first compound 3.16 µM): 35.2%
viability, T/C (second compound 0.0316 µM, first compound 10 µM): 31.3%
viability, T/C [5]: 65.7%
viability, T/C [6]: 55.6%
viability, T/C [7]: 43.8%
viability, T/C [8]: 32.5%
viability, T/C (second compound 0.1 µM, first compound 3.16 µM): 36.8%
viability, T/C (second compound 0.1 µM, first compound 10 µM): 28.4%
viability, T/C [9]: 63.6%
viability, T/C [10]: 58.2%
viability, T/C [11]: 38.2%
viability, T/C [12]: 33%
viability, T/C (second compound 0.316 µM, first compound 3.16 µM): 26.6%
viability, T/C (second compound 0.316 µM, first compound 10 µM): 21%
viability, T/C [13]: 54.3%
viability, T/C [14]: 49.7%
viability, T/C [15]: 32%
viability, T/C [16]: 27.2%
viability, T/C (second compound 1 µM, first compound 3.16 µM): 27.7%
viability, T/C (second compound 1 µM, first compound 10 µM): 20.2%
viability, T/C (second compound 3.16 µM, first compound 0.0316 µM): 51.2%
viability, T/C (second compound 3.16 µM, first compound 0.1 µM): 35.9%
viability, T/C (second compound 3.16 µM, first compound 0.316 µM): 35%
viability, T/C (second compound 3.16 µM, first compound 1 µM): 29.3%
viability, T/C (second compound 3.16 µM, first compound 3.16 µM): 26.6%
viability, T/C (second compound 3.16 µM, first compound 10 µM): 18.8%
viability, T/C (second compound 10 µM, first compound 0.0316 µM): 39%
viability, T/C (second compound 10 µM, first compound 0.1 µM): 31%
viability, T/C (second compound 10 µM, first compound 0.316 µM): 24.1%
viability, T/C (second compound 10 µM, first compound 1 µM): 23.9%
viability, T/C (second compound 10 µM, first compound 3.16 µM): 18.6%
viability, T/C (second compound 10 µM, first compound 10 µM): 16.9%

IC50 (second compound 0.00316 µM): > 1000 nM
IC50 (second compound 0.01 µM): > 1000 nM
IC50 (second compound 0.0316 µM): > 1000 nM
IC50 (second compound 0.1 µM): > 1000 nM
IC50 (second compound 0.316 µM): > 1000 nM
IC50 (second compound 1 µM): > 1000 nM
Compound: C=CC(=O)Nc1cc(Nc2nccc(-c3cn(C)c4ccccc34)n2)c(OC)cc1N(C)CCN(C)C + C=CC(=O)N1CCN(c2nc(OCC3CCCN3C)nc3c(F)c(-c4nc(N)cc(C)c4C(F)(F)F)c(Cl)cc23)C(C)C1
viability, T/C (second compound 0.00316 µM, first compound 0.00316 µM): 110%
viability, T/C (second compound 0.00316 µM, first compound 0.01 µM): 99.2%
viability, T/C (second compound 0.00316 µM, first compound 0.0316 µM): 92.6%
viability, T/C (second compound 0.00316 µM, first compound 0.1 µM): 80.3%
viability, T/C (second compound 0.00316 µM, first compound 0.316 µM): 68.6%
viability, T/C (second compound 0.00316 µM, first compound 1 µM): 52.8%
viability, T/C (second compound 0.01 µM, first compound 0.00316 µM): 104%
viability, T/C (second compound 0.01 µM, first compound 0.01 µM): 103%
viability, T/C (second compound 0.01 µM, first compound 0.0316 µM): 101%
viability, T/C (second compound 0.01 µM, first compound 0.1 µM): 90.1%
viability, T/C (second compound 0.01 µM, first compound 0.316 µM): 68.4%
viability, T/C (second compound 0.01 µM, first compound 1 µM): 58%
viability, T/C (second compound 0.0316 µM, first compound 0.00316 µM): 102%
viability, T/C (second compound 0.0316 µM, first compound 0.01 µM): 99%
viability, T/C [1]: 94%
viability, T/C [2]: 87.3%
viability, T/C [3]: 70.3%
viability, T/C [4]: 61.2%
viability, T/C (second compound 0.1 µM, first compound 0.00316 µM): 100%
viability, T/C (second compound 0.1 µM, first compound 0.01 µM): 99.4%
viability, T/C [5]: 91.1%
viability, T/C [6]: 90.6%
viability, T/C [7]: 72.9%
viability, T/C [8]: 54.6%
viability, T/C (second compound 0.316 µM, first compound 0.00316 µM): 99.2%
viability, T/C (second compound 0.316 µM, first compound 0.01 µM): 110%
viability, T/C [9]: 103%
viability, T/C [10]: 94.5%
viability, T/C [11]: 76.1%
viability, T/C [12]: 58.8%
viability, T/C (second compound 1 µM, first compound 0.00316 µM): 90.6%
viability, T/C (second compound 1 µM, first compound 0.01 µM): 100%
viability, T/C [13]: 93.5%
viability, T/C [14]: 96.4%
viability, T/C [15]: 73.3%
viability, T/C [16]: 54.9%

IC50 (second compound 0.000949 µM): 192 nM
IC50 (second compound 0.003 µM): 220 nM
IC50 (second compound 0.00949 µM): 239 nM
IC50 (second compound 0.03 µM): 129 nM
IC50 (second compound 0.0949 µM): 180 nM
IC50 (second compound 0.3 µM): 100 nM
Compound: NC1c2ccccc2OC12CCN(c1cnc3c(N4CCCc5ncccc54)n[nH]c3n1)CC2 (stereo unspecified) + CCn1c(-c2cccnc2C(C)OC)c2c3cc(ccc31)N1CCOC(CC(NC(=O)C(C(C)C)N(C)C(=O)C3(F)CCN(C(=O)C#CC(C)(C)N(C)C)CC3)C(=O)N3CCCC(N3)C(=O)OCC(C)(C)C2)C1
viability, T/C (second compound 0.000949 µM, first compound 0.0316 µM): 63.8%
viability, T/C (second compound 0.000949 µM, first compound 0.1 µM): 54.9%
viability, T/C (second compound 0.000949 µM, first compound 0.316 µM): 46%
viability, T/C (second compound 0.000949 µM, first compound 1 µM): 40.4%
viability, T/C (second compound 0.000949 µM, first compound 3.16 µM): 44%
viability, T/C (second compound 0.000949 µM, first compound 10 µM): 35.3%
viability, T/C (second compound 0.003 µM, first compound 0.0316 µM): 70.6%
viability, T/C (second compound 0.003 µM, first compound 0.1 µM): 56.3%
viability, T/C (second compound 0.003 µM, first compound 0.316 µM): 49.1%
viability, T/C (second compound 0.003 µM, first compound 1 µM): 37.1%
viability, T/C (second compound 0.003 µM, first compound 3.16 µM): 36.2%
viability, T/C (second compound 0.003 µM, first compound 10 µM): 33%
viability, T/C (second compound 0.00949 µM, first compound 0.0316 µM): 77.8%
viability, T/C (second compound 0.00949 µM, first compound 0.1 µM): 57.9%
viability, T/C (second compound 0.00949 µM, first compound 0.316 µM): 47.1%
viability, T/C (second compound 0.00949 µM, first compound 1 µM): 41.5%
viability, T/C (second compound 0.00949 µM, first compound 3.16 µM): 42%
viability, T/C (second compound 0.00949 µM, first compound 10 µM): 35.9%
viability, T/C (second compound 0.03 µM, first compound 0.0316 µM): 73.1%
viability, T/C (second compound 0.03 µM, first compound 0.1 µM): 50.4%
viability, T/C (second compound 0.03 µM, first compound 0.316 µM): 44.6%
viability, T/C (second compound 0.03 µM, first compound 1 µM): 38.5%
viability, T/C (second compound 0.03 µM, first compound 3.16 µM): 37.2%
viability, T/C (second compound 0.03 µM, first compound 10 µM): 35.4%
viability, T/C (second compound 0.0949 µM, first compound 0.0316 µM): 66.8%
viability, T/C (second compound 0.0949 µM, first compound 0.1 µM): 56.3%
viability, T/C (second compound 0.0949 µM, first compound 0.316 µM): 43.5%
viability, T/C (second compound 0.0949 µM, first compound 1 µM): 38.1%
viability, T/C (second compound 0.0949 µM, first compound 3.16 µM): 36.4%
viability, T/C (second compound 0.0949 µM, first compound 10 µM): 31.8%
viability, T/C (second compound 0.3 µM, first compound 0.0316 µM): 59.7%
viability, T/C (second compound 0.3 µM, first compound 0.1 µM): 49.6%
viability, T/C (second compound 0.3 µM, first compound 0.316 µM): 42.8%
viability, T/C (second compound 0.3 µM, first compound 1 µM): 35.1%
viability, T/C (second compound 0.3 µM, first compound 3.16 µM): 30.6%
viability, T/C (second compound 0.3 µM, first compound 10 µM): 27.6%
